# Reference: patent publication US20210079015A1, “NOVEL DIHYDROISOXAZOLE COMPOUNDS AND THEIR USE FOR THE TREATMENT OF HEPATITIS B” (Novartis AG, priority 2017, published 2021)
# System: HBV
# Assay: Anti-HBV assay (inhibition of HBV replication in HepG2.cl42 cells, HBV DNA by qPCR)
# Format: cell-based, HBV ayw strain
# Conditions: Hepatitis B virus, 96 h, treated four days, HBV DNA quantified by real time PCR, read-out: HBsAg EC50
row,SMILES,EC50 [nM]
1,"C[C@H]1Cc2noc(N3CCCCC3=O)c2CN1C(=O)Nc1ccc(C#N)c(F)c1 [Compound 47, (S)—N-(4-cyano-3-fluorophenyl)-6-methyl-3-(2-oxopiperidin-1-yl)-6,7-dihydroisoxazolo[4,3-c]pyridine-5(4H)-carboxamide]",100 to 1000
2,"C[C@H]1Cc2noc(N3CCCOC3=O)c2CN1C(=O)Nc1cc(F)c(F)c(F)c1 [Compound 48, (S)-6-methyl-3-(2-oxo-1,3-oxazinan-3-yl)-N-(3,4,5-trifluorophenyl)-6,7-dihydroisoxazolo[4,3-c]pyridine-5(4H)-carboxamide]",< 100
3,"C[C@H]1Cc2noc(N3CCOCC3=O)c2CN1C(=O)Nc1cc(F)c(F)c(F)c1 [Compound 49, (S)-6-methyl-3-(3-oxomorpholino)-N-(3,4,5-trifluorophenyl)-6,7-dihydroisoxazolo[4,3-c]pyridine-5(4H)-carboxamide]",< 100
4,"C[C@H]1Cc2noc(N3CCCOC3=O)c2CN1C(=O)Nc1ccc(F)c(C(F)F)c1 [Compound 50, (S)—N-(3-(difluoromethyl)-4-fluorophenyl)-6-methyl-3-(2-oxo-1,3-oxazinan-3-yl)-6,7-dihydroisoxazolo[4,3-c]pyridine-5(4H)-carboxamide]",< 100
5,"C[C@H]1Cc2noc(N3CCCOC3=O)c2CN1C(=O)Nc1cc(F)c(F)c(C(F)F)c1 [Compound 51, (S)—N-(3-(difluoromethyl)-4,5-difluorophenyl)-6-methyl-3-(2-oxo-1,3-oxazinan-3-yl)-6,7-dihydroisoxazolo[4,3-c]pyridine-5(4H)-carboxamide]",< 100
6,"C[C@H]1Cc2noc(N3CCCOC3=O)c2CN1C(=O)Nc1ccnc(C(F)F)c1 [Compound 52, (S)—N-(2-(difluoromethyl)pyridin-4-yl)-6-methyl-3-(2-oxo-1,3-oxazinan-3-yl)-6,7-dihydroisoxazolo[4,3-c]pyridine-5(4H)-carboxamide]",100 to 1000
7,"C[C@H]1Cc2noc(N3CCCC3=O)c2CN1C(=O)Nc1ccc(F)c(C#N)c1 [Compound 53, (S)—N-(3-cyano-4-fluorophenyl)-6-methyl-3-(2-oxopyrrolidin-1-yl)-6,7-dihydroisoxazolo[4,3-c]pyridine-5(4H)-carboxamide]",< 100
8,"C[C@H]1Cc2noc(N3CCCCC3=O)c2CN1C(=O)Nc1ccccc1 [Compound 54, (S)-6-methyl-3-(2-oxopiperidin-1-yl)-N-phenyl-6,7-dihydroisoxazolo[4,3-c]pyridine-5(4H)-carboxamide]",100 to 1000
9,"C[C@H]1Cc2noc(N3CCOC3=O)c2CN1C(=O)Nc1cc(F)c(F)c(F)c1 [Compound 55, (S)-6-methyl-3-(2-oxooxazolidin-3-yl)-N-(3,4,5-trifluorophenyl)-6,7-dihydroisoxazolo[4,3-c]pyridine-5(4H)-carboxamide]",100 to 1000
10,"CC1CCN(c2onc3c2CN(C(=O)Nc2cc(F)c(F)c(F)c2)[C@@H](C)C3)C1=O (stereo partly drawn) [Compound 56, (6S)-6-methyl-3-(3-methyl-2-oxopyrrolidin-1-yl)-N-(3,4,5-trifluorophenyl)-6,7-dihydroisoxazolo[4,3-c]pyridine-5(4H)-carboxamide]",< 100
11,"C[C@H]1Cc2noc(N3CCC(C)(C)C3=O)c2CN1C(=O)Nc1cc(F)c(F)c(F)c1 [Compound 57, (S)-3-(3,3-dimethyl-2-oxopyrrolidin-1-yl)-6-methyl-N-(3,4,5-trifluorophenyl)-6,7-dihydroisoxazolo[4,3-c]pyridine-5(4H)-carboxamide]",< 100
12,"C[C@H]1Cc2noc(N3CCCS3(=O)=O)c2CN1C(=O)Nc1cc(F)c(F)c(F)c1 [Compound 58, (S)-3-(1,1-dioxidoisothiazolidin-2-yl)-6-methyl-N-(3,4,5-trifluorophenyl)-6,7-dihydroisoxazolo[4,3-c]pyridine-5(4H)-carboxamide]",< 100
13,"C[C@H]1Cc2noc(N3CCOCC3)c2CN1C(=O)Nc1cc(F)c(F)c(F)c1 [Compound 59, (S)-6-methyl-3-morpholino-N-(3,4,5-trifluorophenyl)-6,7-dihydroisoxazolo[4,3-c]pyridine-5(4H)-carboxamide]",≥ 1000
14,"C[C@H]1Cc2noc(N3C(=O)CCC3=O)c2CN1C(=O)Nc1cc(F)c(F)c(F)c1 [Compound 60, (S)-3-(2,5-dioxopyrrolidin-1-yl)-6-methyl-N-(3,4,5-trifluorophenyl)-6,7-dihydroisoxazolo[4,3-c]pyridine-5(4H)-carboxamide]",≥ 1000
15,"COC[C@@H]1CN(c2onc3c2CN(C(=O)Nc2cc(F)c(F)c(F)c2)[C@@H](C)C3)C(=O)O1 [Compound 61, (S)-3-((S)-5-(methoxymethyl)-2-oxooxazolidin-3-yl)-6-methyl-N-(3,4,5-trifluorophenyl)-6,7-dihydroisoxazolo[4,3-c]pyridine-5(4H)-carboxamide]",100 to 1000
16,"COC[C@H]1CN(c2onc3c2CN(C(=O)Nc2cc(F)c(F)c(F)c2)[C@@H](C)C3)C(=O)O1 [Compound 62, (S)-3-((R)-5-(methoxymethyl)-2-oxooxazolidin-3-yl)-6-methyl-N-(3,4,5-trifluorophenyl)-6,7-dihydroisoxazolo[4,3-c]pyridine-5(4H)-carboxamide]",100 to 1000
17,"C[C@H]1Cc2noc(N3CCC(CC(=O)O)C3=O)c2CN1C(=O)Nc1cc(F)c(F)c(F)c1 (stereo partly drawn) [Compound 63, 2-(1-((S)-6-methyl-5-((3,4,5-trifluorophenyl)carbamoyl)-4,5,6,7-tetrahydroisoxazolo[4,3-c]pyridin-3-yl)-2-oxopyrrolidin-3-yl)acetic acid]",≥ 1000
